Test results published in patent US12686664B2, “SOCE inhibitors and therapeutic uses thereof” (Institut National de la Santé et de la Recherche Médicale …, priority 2020, dated 2026).
Like-named read-outs stand apart in the source and are kept apart here. Marks after values point to notes of the source that are not given here.

Test system: store-operated Ca^2+ entry in PLP-B lymphocytes
Assay: Store-operated Ca2+ entry after thapsigargin depletion of ER Ca2+ stores in PLP-B lymphocytes
Type: cell-based
Procedure: The effects of the molecules developed were tested on PLP-B lymphocytes. Store-operated Ca^2+ entry was induced by depletion of Endoplasmic Reticulum Ca^2+ stores (ER Ca^2+ stores) with thapsigargin (Tg) in a Ca^2+-free medium and measured following the addition of 1.8 mM of CaCl2) in the extracellular medium. The results are compared to the results obtained for known SOCE inhibitors SKF-96365, GSK-7975A, Synta 66.

[1] = Lymphocyte, 10 μM, PLP-B lymphocytes, % of inhibition (−) or activation, DMSO control 100%, read-out: Effect on amplitude of SOCE Peak
[2] = Lymphocyte, 10 μM, thapsigargin (Tg) peak, PLP-B lymphocytes, % of inhibition (−) or activation, read-out: Effect on amplitude of Tg Peak
[3] = Lymphocyte, 50 μM, PLP-B lymphocytes, % of inhibition (−) or activation, DMSO control 100%, read-out: Effect on amplitude of SOCE Peak
[4] = Lymphocyte, 50 μM, thapsigargin (Tg) peak, PLP-B lymphocytes, % of inhibition (−) or activation, read-out: Effect on amplitude of Tg Peak
[5] = Lymphocyte, 100 μM, PLP-B lymphocytes, % of inhibition (−) or activation, DMSO control 100%, read-out: Effect on amplitude of SOCE Peak
[6] = Lymphocyte, 100 μM, thapsigargin (Tg) peak, PLP-B lymphocytes, % of inhibition (−) or activation, read-out: Effect on amplitude of Tg Peak
[7] = Lymphocyte, PLP-B lymphocytes, % of inhibition (−) or activation, DMSO control 100%, read-out: Effect on amplitude of SOCE Peak
[8] = Lymphocyte, thapsigargin (Tg) peak, PLP-B lymphocytes, % of inhibition (−) or activation, read-out: Effect on amplitude of Tg Peak

Compound	inhibition at 10 µM [1]	inhibition at 10 µM [2]	inhibition at 50 µM [3]	inhibition at 50 µM [4]	inhibition at 100 µM [5]	inhibition at 100 µM [6]	further results
1-(4-(Methoxymethoxy)-2-(trifluoromethyl)-1H-benzo[d]imidazole [6αaf VAL3.33]							Effect on amplitude of SOCE peak (10 μM, PLP-B lymphocytes, % of inhibition (−) or activation, DMSO control 100%): 40.0# %; Effect on amplitude of Tg Peak (10 μM, thapsigargin (Tg) peak, PLP-B lymphocytes, % of inhibition (−) or activation): −29.0# %; Effect on amplitude of SOCE peak (50 μM, PLP-B lymphocytes, % of inhibition (−) or activation, DMSO control 100%): 1.0%; Effect on amplitude of Tg Peak (50 μM, thapsigargin (Tg) peak, PLP-B lymphocytes, % of inhibition (−) or activation): −34.0# %; Effect on amplitude of SOCE peak (100 μM, PLP-B lymphocytes, % of inhibition (−) or activation, DMSO control 100%): −2.0%; Effect on amplitude of Tg Peak (100 μM, thapsigargin (Tg) peak, PLP-B lymphocytes, % of inhibition (−) or activation): −38.0# %
COc1ccc(CCCOc2ccc(CCn3ncc4ccccc43)cc2)cc1 [6αaa DAD 4-574]	10.4%	23.1%	16.4%	13.3%	31.6%	19.7%	
c1ccc(CCOc2ccc(CCn3cnc4ccccc43)cc2)cc1 [6αab DAD 4-553]			2%	1%	46%	8%	
c1ccc(CCCOc2ccc(CCn3ncc4ccccc43)cc2)cc1 [6αab DAD 4-575]	-20.8%	8.9%	2.9%	20.7%	43.6%	24.2%	
COc1ccccc1CCOc1ccc(CCn2cnc3ccccc32)cc1 [6αac DAD 4-566]	31.1%	-9.6%	87.2%	-9%	84.3%	-13.2%	inhibition at 0.1 µM [7]: -12.9%; inhibition at 0.1 µM [8]: -2.3%; inhibition at 1 µM [7]: -6.2%; inhibition at 1 µM [8]: 1.1%; IC50 (Lymphocyte, SOCE in PLP-B lymphocytes, average of three assays, ±0.5 μM): 13.5 µM
COc1cccc(CCOc2ccc(CCn3cnc4ccccc43)cc2)c1 [6αad DAD 4-567]	28.1%	5.7%	81.7%	9.1%	84.3%		inhibition at 0.1 µM [7]: -12.9%; inhibition at 1 µM [7]: -2.9%; inhibition at 1 µM [8]: 16.2%
COCOc1ccc(CCn2cnc3ccccc32)cc1 [6αad VAL3.31, 1-(4-(Methoxymethoxy)phenethyl)-1H-benzo[d]imidazole]	-51%	10%	-54%	9%	-5%	15%	
c1ccc(OCCOc2ccc(CCn3cnc4ccccc43)cc2)cc1 [6αae DAD 4-569]	-7.5%	11.3%	-13.1%	7.6%	12.4%	12%	
COCOc1ccc(CCn2ncc3ccccc32)cc1 [6αae VAL3.32, 1-(4-(Methoxymethoxy)phenethyl)-1H-indazole]	-39%	26%	-23%	19%	24%	27%	
COc1ccc(CCOc2ccc(CCn3ncc4ccccc43)cc2)cc1 [6αb DAD 4-573, 1-(4-(4-Methoxyphenethoxy)phenethyl)-1H-indazole]	-14%	8%		5%	30%	22%	percent change in peak amplitude vs DMSO control (negative = inhibition, positive = activation) at 50 µM [3]: 0%
COc1ccc(CCOc2ccc(CCn3c(C(F)(F)F)nc4ccccc43)cc2)cc1 [6αc DAD 4-546, 1-(4-(4-Methoxyphenethoxy)phenethyl)-2-trifluoromethyl-1H-benzo[d]imidazole]			30%	18%	26%	18%	
Fc1ccc(CCOc2ccc(CCn3cnc4ccccc43)cc2)cc1 [6αd DAD 4-568]	7.8%	8.5%	-1.3%	5.3%	64%	15.1%	
COc1ccc(CCOc2ccc(CCn3cnc4c(Cl)cc(C(F)(F)F)cc43)cc2)cc1 [6αe DAD 4-548, 4-Chloro-1-(4-(4-methoxyphenethoxy)phenethyl)-6-(trifluoromethyl)-1H-benzo[d]imidazole]			28%	-5%	9%	-1%	
c1ccc(CCCOc2ccc(CCn3cnc4ccccc43)cc2)cc1 [6αm DAD 3-475]			4%	-7%	77%	-7%	
COc1ccc(CCOc2ccc(CCn3c(C(F)(F)F)nc4cc(N)ccc43)cc2)cc1 [6αm VAL 1-77]	-4%	1%	12%	1%	55%	11%	
COc1ccc(CCCOc2ccc(CCn3cnc4ccccc43)cc2)cc1 [6αn DAD 3-474]	-16%	5%	-4%	-5%	25%	3%	inhibition at 1 µM [7]: -1%; inhibition at 1 µM [8]: 11%
COc1ccc(CCOc2ccccc2CCn2cnc3ccccc32)cc1 [6αo DAD 4-551]			33%	4%	82%	-8%	
COc1ccc(CCOc2cccc(CCn3cnc4ccccc43)c2)cc1 [6αp DAD 4-552]			29%	15%	71%	7%	
c1ccc(OCCCOc2ccc(CCn3cnc4ccccc43)cc2)cc1 [6αs DAD 4-570]	9.4%	10.6%	19%	-0.7%	56.9%	4.1%	
COc1ccc(COc2ccc(CCn3c(C(F)(F)F)nc4cc(N)ccc43)cc2)cc1 [6αt VAL 1-76]	3%	-1%	10%	-6%	34%	22%	
COc1ccc(CCCOc2ccc(CCn3c(C(F)(F)F)nc4cc(N)ccc43)cc2)cc1 [6αu VAL 1-75]	-6%	-5%	30%	-11%	68%	-5%	
Nc1ccc2c(c1)nc(C(F)(F)F)n2CCc1ccc(OCCCc2ccccc2)cc1 [6αv VAL 1-64]	-8%		25%	-11%	77%	-2%	percent change in peak amplitude vs DMSO control (negative = inhibition, positive = activation) at 10 µM [2]: 0%
COc1ccc(COc2ccc(CCn3cnc4ccccc43)cc2)cc1 [6αz DAD 4-472]	15.4%	1.6%	13.7%	1.9%	-5.9%	1.5%	
FC(F)(F)c1cc(C(F)(F)F)n(CCc2ccccc2OCCc2ccccc2)n1 [6βaa DAD 3.535]	18%	8%	20%	4%	29%	11%	
COc1ccc(CCCOc2ccc(CCn3cncn3)cc2)cc1 [6βe DAD 3.470]						31%	Effect on amplitude of SOCE peak (50 μM, PLP-B lymphocytes, % of inhibition (−) or activation, DMSO control 100%, listed as 6βe): −6.0%; Effect on amplitude of Tg Peak (50 μM, thapsigargin (Tg) peak, PLP-B lymphocytes, % of inhibition (−) or activation, listed as 6βe): −31.0# %; Effect on amplitude of SOCE peak (100 μM, PLP-B lymphocytes, % of inhibition (−) or activation, DMSO control 100%, listed as 6βe): −21.0# %
COc1ccc(COc2ccc(CCn3cnc(C(F)(F)F)n3)cc2)cc1 [6βg DAD 3.472]			5%	18%	37%	25%	
FC(F)(F)c1ncn(CCc2ccc(OCCCc3ccccc3)cc2)n1 [6βi DAD 3.475]			13%	6%	43%	7%	
COc1ccc(COc2ccc(CCn3cccn3)cc2)cc1 [6βm DAD 2.306]	-2%		-0.5%		-16.8%		
COc1ccc(CCOc2ccc(CCn3cccn3)cc2)cc1 [6βn DAD 2.307]	-6.5%		7.2%		62%		
